Columns and labels:
MDA-MB-231 [1] = experiment: Cytotoxicity against human MDA-MB-231 cells assessed as reduction in cell viability after 24 hrs by MTT assay; format: functional, cell-based; details: Homo sapiens, MDA-MB-231, 24 h
A549 [2] = experiment: Cytotoxicity against human A549 cells assessed as reduction in cell viability after 24 hrs by MTT assay; format: functional, cell-based; details: A549, 24 h
L02 = experiment: Cytotoxicity against human L02 cells assessed as reduction in cell viability after 24 hrs by MTT assay; format: cell-based; details: L02, 24 h
HEK-293T = experiment: Cytotoxicity against HEK293T cells assessed as reduction in cell viability after 24 hrs by MTT assay; format: cell-based; details: Homo sapiens
HeLa [3] = experiment: Cytotoxicity against human HeLa cells assessed as reduction in cell viability after 24 hrs by MTT assay; format: functional, cell-based
MCF7 [4] = experiment: Cytotoxicity against human MCF7 cells assessed as reduction in cell viability after 24 hrs by MTT assay; format: functional, cell-based; details: MCF7, 24 h
HeLa [5] = experiment: Cytotoxicity against human HeLa cells assessed as reduction in cell viability after 72 hrs by MTT assay; format: functional, cell-based
Caco-2 = experiment: Cytotoxicity against human Caco2 cells assessed as reduction in cell viability after 72 hrs by MTT assay; format: functional, cell-based; details: Caco-2, 72 h
K562 = experiment: Cytotoxicity against human K562 cells assessed as reduction in cell viability after 72 hrs by MTT assay; format: functional, cell-based; details: K562, 72 h
MCF7 [6] = experiment: Cytotoxicity against human MCF7 cells assessed as reduction in cell viability after 48 hrs by MTT assay; format: functional, cell-based; details: MCF7, 48 h
HepG2 [7] = experiment: Cytotoxicity against human HepG2 cells assessed as reduction in cell viability after 48 hrs by MTT assay; format: functional, cell-based; details: HepG2, 48 h
AGS = experiment: Growth inhibition of human AGS cells; format: functional
[8] = Growth inhibition of human KATO III cells; format: functional
SNU1 = experiment: Growth inhibition of human SNU1 cells; format: functional
SK-OV-3 = experiment: Growth inhibition of human SKOV3 cells; format: functional
OVCAR-8 = experiment: Growth inhibition of human OVCAR8 cells; format: functional
BXPC-3 = experiment: Growth inhibition of human BxPC3 cells; format: functional
PANC-1 [9] = experiment: Growth inhibition of human PANC1 cells; format: functional
T-24 = experiment: Growth inhibition of human T24 cells; format: functional
WiDr = experiment: Growth inhibition of human WiDr cells; format: functional
HepG2 [10] = experiment: Growth inhibition of human HepG2 cells; format: functional
SN12C = experiment: Growth inhibition of human SN12C cells; format: functional
MCF7 [11] = experiment: Growth inhibition of human MCF7 cells; format: functional
MDA-MB-231 [12] = experiment: Cytotoxicity against human MDA-MB-231 cells assessed as reduction in cell viability; format: functional, cell-based
Ishikawa = experiment: Cytotoxicity against human Ishikawa cells assessed as reduction in cell viability; format: functional, cell-based
MCF7 [13] = experiment: Cytotoxicity against human MCF7 cells assessed as reduction in cell viability; format: functional, cell-based
PANC-1 [14] = experiment: Cytotoxicity against human PANC1 cells assessed as reduction in cell viability by MTT assay; format: functional, cell-based
A549 [15] = experiment: Cytotoxicity against human A549 cells assessed as reduction in cell viability by MTT assay; format: functional, cell-based
HepG2 [16] = experiment: Cytotoxicity against human HepG2 cells assessed as reduction in cell viability by MTT assay; format: functional, cell-based
[17] = target: Vascular endothelial growth factor receptor 2 (Homo sapiens, UniProt P35968); experiment: Inhibition of VEGFR2 (unknown origin)
DLD-1 = experiment: Cytotoxicity against human DLD1 cells assessed as reduction in cell viability; format: functional, cell-based
[18] = Toxicity in mouse assessed as mouse survival (reference value: 14.5 days); details: in vivo, 348 h
MCF7 [19] = experiment: Cytotoxicity against human MCF7 cells assessed as reduction in cell viability by MTT assay; format: functional, cell-based
HepG2 [20] = experiment: Anticancer activity against human HepG2 cells by CCK8 assay; format: functional, cell-based
Hep 3B2 = experiment: Anticancer activity against human Hep3B cells by CCK8 assay; format: functional, cell-based
A2780 = experiment: Anticancer activity against human A2780 cells by CCK8 assay; format: functional, cell-based
OVCAR-3 = experiment: Anticancer activity against human OVCAR3 cells by CCK8 assay; format: functional, cell-based

Sequence of Vascular endothelial growth factor receptor 2 (P35968 whole entry): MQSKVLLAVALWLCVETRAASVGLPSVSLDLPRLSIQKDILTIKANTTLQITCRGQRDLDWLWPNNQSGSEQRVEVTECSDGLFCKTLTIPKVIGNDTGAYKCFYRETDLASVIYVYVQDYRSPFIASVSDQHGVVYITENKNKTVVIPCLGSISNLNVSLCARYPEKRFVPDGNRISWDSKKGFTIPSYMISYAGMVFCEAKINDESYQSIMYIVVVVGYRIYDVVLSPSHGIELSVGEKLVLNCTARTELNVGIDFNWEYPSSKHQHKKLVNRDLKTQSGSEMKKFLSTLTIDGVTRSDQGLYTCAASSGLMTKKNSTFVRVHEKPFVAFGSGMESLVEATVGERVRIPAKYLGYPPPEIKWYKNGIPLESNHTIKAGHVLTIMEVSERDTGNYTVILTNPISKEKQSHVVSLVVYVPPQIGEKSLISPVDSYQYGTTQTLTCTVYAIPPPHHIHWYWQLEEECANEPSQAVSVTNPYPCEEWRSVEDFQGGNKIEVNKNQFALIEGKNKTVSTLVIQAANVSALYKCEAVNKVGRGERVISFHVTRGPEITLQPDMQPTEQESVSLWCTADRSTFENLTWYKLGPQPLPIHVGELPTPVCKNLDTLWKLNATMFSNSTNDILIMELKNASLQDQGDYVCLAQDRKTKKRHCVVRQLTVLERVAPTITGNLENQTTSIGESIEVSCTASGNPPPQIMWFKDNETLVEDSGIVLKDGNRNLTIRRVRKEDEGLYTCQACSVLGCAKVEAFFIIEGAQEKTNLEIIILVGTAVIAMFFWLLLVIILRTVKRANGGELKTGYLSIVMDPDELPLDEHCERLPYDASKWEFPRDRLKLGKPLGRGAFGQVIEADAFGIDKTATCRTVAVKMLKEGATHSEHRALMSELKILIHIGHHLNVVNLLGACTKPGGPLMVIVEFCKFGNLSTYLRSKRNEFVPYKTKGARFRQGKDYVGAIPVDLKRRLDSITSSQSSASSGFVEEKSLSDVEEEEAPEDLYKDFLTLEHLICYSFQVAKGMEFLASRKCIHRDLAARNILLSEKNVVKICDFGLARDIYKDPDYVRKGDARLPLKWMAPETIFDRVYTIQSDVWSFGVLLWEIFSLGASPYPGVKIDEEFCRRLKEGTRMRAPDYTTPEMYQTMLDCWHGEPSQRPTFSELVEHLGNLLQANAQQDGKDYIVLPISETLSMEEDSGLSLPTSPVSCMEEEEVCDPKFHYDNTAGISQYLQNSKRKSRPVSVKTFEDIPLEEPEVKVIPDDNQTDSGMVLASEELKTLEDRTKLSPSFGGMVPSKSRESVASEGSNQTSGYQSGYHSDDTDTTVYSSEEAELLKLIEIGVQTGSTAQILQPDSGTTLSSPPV

`CC(C)=CC[C@@H](O)C1=CC(=O)c2c(O)ccc(O)c2C1=O` [SHIKONIN] gave an IC50 (MDA-MB-231 [1]) of 6.5 to 10.4 µM, an IC50 (A549 [2]) of 6.5 to 10.4 µM and an IC50 (L02) of 6.22 µM. For the same molecule, the IC50 (HEK-293T) was 1.52 µM, the IC50 (HeLa [3]) was 6.5 to 10.4 µM and the IC50 (MCF7 [4]) was 6.5 to 10.4 µM.
Molecule `COc1ccccc1-c1cn(Cc2cc(=O)oc3cc(O)c(O)cc23)nn1` has an IC50 (HeLa [5]) of 9.7 to 81.9 µM, an IC50 (Caco-2) of 9.7 to 81.9 µM and an IC50 (K562) of 9.7 to 81.9 µM.
`Cc1cc(-c2cc3ccccc3oc2=O)n(-c2nc(-c3ccc(Cl)cc3)cs2)n1` showed an IC50 (MCF7 [6]) of 4.03 to 31.5 µM and an IC50 (HepG2 [7]) of 3.06 to 3.74 µM.
`Cc1cc2nc(-c3cc4ccccc4oc3=O)[nH]c2cc1C` showed a GI50 (AGS) of 0.07 to 3.57 µM, a GI50 [8] of 0.07 to 3.57 µM and a GI50 (SNU1) of 0.07 to 3.57 µM. The GI50 (SK-OV-3) was 0.07 to 3.57 µM, the GI50 (OVCAR-8) was 0.07 to 3.57 µM and the GI50 (BXPC-3) was 0.07 to 3.57 µM. For the same molecule, the GI50 (PANC-1 [9]) was 0.07 to 3.57 µM, the GI50 (T-24) was 0.07 to 3.57 µM and the GI50 (WiDr) was 0.07 to 3.57 µM. It also gave a GI50 (HepG2 [10]) of 0.07 to 3.57 µM, a GI50 (SN12C) of 0.07 to 3.57 µM and a GI50 (MCF7 [11]) of over 10 µM.
`COC(=O)c1cc2cc(-c3nc4cc(C)ccn4c3NC(C)(C)C)cc(C(C)C)c2oc1=O` showed an IC50 (MDA-MB-231 [12]) of 14.1 to 42.6 µM, an IC50 (Ishikawa) of 14.1 to 42.6 µM and an IC50 (MCF7 [13]) of 14.1 to 42.6 µM.
In the case of `COc1cc(Cl)ccc1NS(=O)(=O)c1ccc2oc(=O)ccc2c1`, the IC50 (PANC-1 [14]) is reported as 4.63 to 7.02 µM, the IC50 (A549 [15]) is reported as 4.63 to 7.02 µM and the IC50 (HepG2 [16]; Homo sapiens, HepG2) is reported as 4.63 to 7.02 µM.
Molecule `Cc1ccc(/N=N/c2sc(N3N=C(c4c(O)c5ccccc5oc4=O)CC3c3ccc(N(C)C)cc3)nc2-c2ccccc2)cc1` (centres undefined) has an IC50 [17] of 0.034 to 0.582 µM, an IC50 (DLD-1) of 114 to 129 µM and an IC50 (MCF7 [13]) of 5.41 to 6.56 µM.
For `O=c1[nH]cc(F)c(=O)[nH]1` [FLUOROURACIL], the Survival [18] was 49 days, the “growth inhibition (GI)” value (HepG2 [16]) was 11.55 - 95.52% and the “growth inhibition (GI)” value (MCF7 [19]) was 11.55 - 95.52%.
With `CCN(CC)c1ccc2cc(C(=O)N3CCN(C(=O)CN4CCN(CCC[C@H]5O[C@@H]6O[C@@]7(C)CC[C@H]8[C@H](C)CC[C@@H]([C@H]5C)[C@@]68OO7)CC4)CC3)c(=O)oc2c1` the IC50 (HepG2 [20]) was 2.33 to 23.7 µM, the IC50 (Hep 3B2) was 2.33 to 23.7 µM and the IC50 (A2780) was 2.33 to 23.7 µM. For the same molecule, the IC50 (OVCAR-3) was 2.33 to 23.7 µM.

From ChEMBL document CHEMBL4373717, “Coumarin-containing hybrids and their anticancer activities” (Eur J Med Chem, 2019)
